The values that follow come from patent publication US4880636A, “Film coated tablet of ranitidine HCl” (priority 1988, dated 1989).

“Also recorded” adds a separate entry of the source. Counter-ions that a name gives are not always drawn.

Data set [1] in a line: Cast film plasticizer comparison study (discoloration). On the set-up: key: 1 = least discoloration; 5 = greatest discoloration. Particulars: ranitidine HCl spread on cast HPMC film with plasticizer (0.2 gm per gram HPMC); 60 degrees centigrade/78.9% RH, approximately two weeks; visual. The format is physicochemical. The protocol: Cast film studies are performed using a typical film aqueous coating composition containing, on a per gram HPMC dry weight basis, plasticizer, 0.2 gm, and Opaspray (trademark of Colorcon, Inc., West Point, PA) colorant solids 0.5 gm. Cast films are prepared by adding 1.5 g of a 15% solids solution to a uniform plate, 42 mm in diameter, and drying at ambient temperature for at least 24 hours. Ranitidine HCl (1.5 gm), of particle size 50 to 200 microns, is then spread uniformly on the dried film coating and stored at 60 degrees centigrade/78.9% relative humidity (RH) for approximately two weeks. The RH is controlled by using a desiccator jar and a saturated KBr solution, which is maintained at 60° C. in a drying oven. […] After two weeks, the cast films are removed and visually examined for discoloration.

Data set [2] can be described thus: Compatibility of plasticizer with ranitidine HCl. As to conditions: plasticizer in polymeric film coating of ranitidine HCl tablets.
The conditions of data set [3]: cited from earlier work.
The conditions of data set [4]: Physicians' Desk Reference, 41st ed., page 993 (1987); cited from earlier work.

Take `OCC(O)CO` [Glycerol, glycerol]: in data set [1], the “Cast Film Discoloration” value was 5.
Turning to `CC(O)CO` (centres unmarked) [Propylene Glycol, propylene glycol], the “Cast Film Discoloration” value in data set [1] is given as 2. Moreover, in data set [2], the “reactivity with ranitidine HCl or promotion of its degradation” value is “promote degradation; also recorded: tend to react with ranitidine HCl or promote degradation at the tablets' surfaces”.
On the same counts, the results for `CC(=O)OCC(COC(C)=O)OC(C)=O` [Triacetin, 1,2,3-propanetriol triacetate] are 1 and “essentially unreactive with ranitidine HCl”.
`CCOC(=O)CC(O)(CC(=O)OCC)C(=O)OCC` [Triethyl Citrate, triethyl citrate]: in data set [1], the “Cast Film Discoloration” value turned out to be 3.
For the compound `CCCCOC(=O)CCCCCCCCC(=O)OCCCC` [dibutyl sebecate], in data set [2], the “reactivity with ranitidine HCl or promotion of its degradation” value is “tend to react with ranitidine HCl or promote degradation at the tablets' surfaces”.
Still for that read-out and setting: the result for `CCOC(=O)c1ccccc1C(=O)OCC` [diethyl phthalate] reads “tend to react with ranitidine HCl or promote degradation at the tablets' surfaces”.
Turning to `CNC(=C[N+](=O)[O-])NCCSCc1ccc(CN(C)C)o1` [ranitidine HCl], the solubility in water entry in data set [3] (25° C.) is given as “greater than 900 mg/mL”. Also, the “solubility in commonly used organic solvents” value in data set [3] is given as “very soluble”. Further, the degradation upon aging result in data set [4] was “accelerated by heat, moisture and light”.
